Test system: A II-infused rat
Assay: antihypertensive action in A II-infused rat model
Assay type: in vivo
Procedure: In accordance with their ability to antagonize angiotensin II, the compounds of this invention show antihypertensive action in the following A II-infused rat model. Rats are anesthetized with Dial-Urethane (0.60 mL/kg, ip) and the trachea cannulated with PE 240. Either one femoral artery and both femoral veins or the carotid artery and the corresponding jugular vein are cannulated with PE 50. If the jugular vein is cannulated, two cannulas are placed in the one vein. The initial portion of the duodenum (just distal to the stomach) is cannulated with PE 50 via a small midline incision. Arterial pressure and heart rate are measured from the arterial cannula. Ten to 15 min are allowed following surgery for stabilization of arterial pressure. Ganglion blockade is then produced by intravenous administration of mecamylamine at 3 mg/kg (1 mL/kg of a 3 mg/mL solution). Ganglion blockade causes a fall in arterial pressure of about 50 mmHg. Mecamylamine is given every 90 min throughout the remainder of the experiment. An A II infusion is then begun into the other venous cannula at 0.25 μg/kg/min (at 9.6 μL/min). The A II infusion returns arterial pressure to or slightly above the control level. Once arterial pressure has stabilized with the A II infusion, baseline values for means arterial pressure (MAP) and heart rate are taken. […]

For `CNC1(C)C2CCC(C2)C1(C)C` (centres unmarked) [mecamylamine], the “fall in arterial pressure on ganglion blockade” value (mecamylamine 3 mg/kg intravenous, before A II infusion, anesthetized rats) was “about 50 mmHg”.
`FC(F)(F)c1nc2c(c(NCc3ccc(-c4ccccc4-c4nnn[nH]4)cc3)n1)CCCCC2.O.[K]` [Example 5, 6,7,8,9-tetrahydro-N-[[2'-(1H-tetrazol-5-yl)[1,1'-biphenyl]-4-yl]methyl]-2-(trifluoromethyl)-5H-cycloheptapyrimidin-4-amine potassium salt hydrate] was tested, and the “average lowering of the A II dependent blood pressure” value (3 mg/kg id (intraduodenal), one half hour postadministration, ganglion-blocked A II-infused rats) was 45%.
